Assay results as given in ChEMBL document CHEMBL3885861, “Open TG-GATES”.

Organism: Rattus norvegicus
Assay: Open TG-GATES - Regimen: Daily Repeat
Format: toxicity, organism-based, Sprague-Dawley
Parameters: regimen Daily Repeat, gender Male, age 6 weeks
Settings: in vivo, po, 300 mg/kg, route gavage, dose level Middle; for APTT / Bas / Eos / Fbg / Hb / Ht / Lym / MCH / MCHC / MCV / Mono / Neu / PT / Plat / RBC / Ret / WBC: tissue Blood; for KIDNEY_L / KIDNEY_R / KIDNEY_TOTAL: tissue Kidney; for LIVER: tissue Liver; for A/G / ALP / ALT / AST / BUN / CRE / Ca / Cl / DBIL / GLC / IP / K / LDH / Na / PL / RALB / TBIL / TC / TG / TP / gamma-GTP: tissue Plasma

## CCCCNC(=O)NS(=O)(=O)c1ccc(C)cc1 [TOLBUTAMIDE]
72 h, time 3 day
  TERMINAL_BW: 233.2 g
  APTT: 17 s
  Bas: 0%
  Eos: 1%
  Fbg: 287.2 mg/dL
  Hb: 13.7 g/dL
  Ht: 41.8%
  Lym: 80%
  MCH: 20.8 pg
  MCHC: 32.8%
  MCV: 63.2 fL
  Mono: 2.6%
  Neu: 15.6%
  PT: 13 s
  Plat: 122.8 x10_4/uL
  RBC: 661 x10_4/ul
  Ret: 6.3%
  WBC: 108 x10_2/uL
  KIDNEY_L: 1 g
  KIDNEY_R: 1 g
  KIDNEY_TOTAL: 2 g
  LIVER: 10.8 g
  A/G: 0.9
  ALP: 1683.8 IU/L
  ALT: 49.4 IU/L
  AST: 70.2 IU/L
  BUN: 13.2 mg/dL
  CRE: 0.2 mg/dL
  Ca: 11.1 mg/dL
  Cl: 105 meq/L
  DBIL: 0.01 mg/dL
  GLC: 176.6 mg/dL
  IP: 8.2 mg/dL
  K: 4 meq/L
  LDH: 69.8 IU/L
  Na: 142.4 meq/L
  PL: 151 mg/dL
  RALB: 2.6 g/dL
  TBIL: 0.062 mg/dL
  TC: 79.2 mg/dL
  TG: 86.4 mg/dL
  TP: 5.5 g/dL
  gamma-GTP: 1 IU/L
[…], time 7 day
  TERMINAL_BW: 265.6 g
  APTT: 17.8 s
  Bas: 0.4%
  Eos: 1%
  Fbg: 287 mg/dL
  Hb: 14 g/dL
  Ht: 42.1%
  Lym: 81.6%
  MCH: 20.9 pg
  MCHC: 33.3%
  MCV: 62.5 fL
  Mono: 2.2%
  Neu: 14.6%
  PT: 12.7 s
  Plat: 118.8 x10_4/uL
  RBC: 674.4 x10_4/ul
  Ret: 5.3%
  WBC: 114.8 x10_2/uL
  KIDNEY_L: 1.1 g
  KIDNEY_R: 1.1 g
  KIDNEY_TOTAL: 2.2 g
  LIVER: 12.4 g
  A/G: 0.8
  ALP: 1624 IU/L
  ALT: 42 IU/L
  AST: 65.2 IU/L
  BUN: 16.6 mg/dL
  CRE: 0.2 mg/dL
  Ca: 10.8 mg/dL
  Cl: 103.8 meq/L
  DBIL: 0.008 mg/dL
  GLC: 204.8 mg/dL
  IP: 7.5 mg/dL
  K: 4.1 meq/L
  LDH: 57.4 IU/L
  Na: 141 meq/L
  PL: 161 mg/dL
  RALB: 2.5 g/dL
  TBIL: 0.052 mg/dL
  TC: 76.4 mg/dL
  TG: 135.8 mg/dL
  TP: 5.6 g/dL
  gamma-GTP: 1 IU/L
[…], time 14 day
  TERMINAL_BW: 327.4 g
  APTT: 18 s
  Bas: 0.4%
  Eos: 1%
  Fbg: 290.4 mg/dL
  Hb: 14.6 g/dL
  Ht: 44.4%
  Lym: 78.2%
  MCH: 19.6 pg
  MCHC: 32.8%
  MCV: 59.8 fL
  Mono: 1.8%
  Neu: 18.4%
  PT: 12.8 s
  Plat: 120.3 x10_4/uL
  RBC: 743.4 x10_4/ul
  Ret: 4.3%
  WBC: 98.4 x10_2/uL
  KIDNEY_L: 1.3 g
  KIDNEY_R: 1.3 g
  KIDNEY_TOTAL: 2.5 g
  LIVER: 14.8 g
  A/G: 0.8
  ALP: 1281 IU/L
  ALT: 41.4 IU/L
  AST: 69 IU/L
  BUN: 16 mg/dL
  CRE: 0.2 mg/dL
  Ca: 10.9 mg/dL
  Cl: 104.2 meq/L
  DBIL: 0.012 mg/dL
  GLC: 193.4 mg/dL
  IP: 6.9 mg/dL
  K: 4 meq/L
  LDH: 55.4 IU/L
  Na: 142.2 meq/L
  PL: 158.6 mg/dL
  RALB: 2.7 g/dL
  TBIL: 0.06 mg/dL
  TC: 76.4 mg/dL
  TG: 127.2 mg/dL
  TP: 5.8 g/dL
  gamma-GTP: 1 IU/L
[…], time 28 day
  TERMINAL_BW: 387.4 g
  APTT: 20 s
  Bas: 0.6%
  Eos: 1%
  Fbg: 266.6 mg/dL
  Hb: 15.4 g/dL
  Ht: 45.4%
  Lym: 81.4%
  MCH: 18.7 pg
  MCHC: 34%
  MCV: 55.2 fL
  Mono: 2.4%
  Neu: 13.8%
  PT: 13.4 s
  Plat: 102.9 x10_4/uL
  RBC: 823.4 x10_4/ul
  Ret: 2.2%
  WBC: 134 x10_2/uL
  KIDNEY_L: 1.4 g
  KIDNEY_R: 1.4 g
  KIDNEY_TOTAL: 2.8 g
  LIVER: 15.5 g
  A/G: 0.8
  ALP: 1057.2 IU/L
  ALT: 39.8 IU/L
  AST: 65.6 IU/L
  BUN: 16 mg/dL
  CRE: 0.2 mg/dL
  Ca: 10.7 mg/dL
  Cl: 104.2 meq/L
  DBIL: 0.01 mg/dL
  GLC: 190 mg/dL
  IP: 6.7 mg/dL
  K: 3.9 meq/L
  LDH: 55 IU/L
  Na: 142.8 meq/L
  PL: 157.2 mg/dL
  RALB: 2.8 g/dL
  TBIL: 0.06 mg/dL
  TC: 74.6 mg/dL
  TG: 152.2 mg/dL
  TP: 6.1 g/dL
  gamma-GTP: 1 IU/L
